{"source": "ChEMBL document CHEMBL1138844", "about": "“Synthesis and biological evaluation of 1-aryl-4,5-dihydro-1H-pyrazolo[3,4-d]pyrimidin-4-one inhibitors of cyclin-dependent kinases” (J Med Chem, 2004)", "key": {"HCT-116 [1]": {"tested_on": "HCT-116", "assay": "Inhibition of human colon carcinoma cell (HCT116) proliferation", "assay_type": "functional, cell-based"}, "MCF7": {"tested_on": "MCF7", "assay": "Inhibitory concentration against human breast cell line MCF-7 was determined", "assay_type": "functional, cell-based"}, "COLO 205": {"tested_on": "COLO 205", "assay": "Inhibitory concentration against human colon cell line COLO 205 was determined", "assay_type": "functional, cell-based"}, "[2]": {"biological_target": "T1, Cyclin-dependent kinase 4/cyclin D1 (Homo sapiens, UniProt P11802)", "T1 sequence (P11802 whole entry)": "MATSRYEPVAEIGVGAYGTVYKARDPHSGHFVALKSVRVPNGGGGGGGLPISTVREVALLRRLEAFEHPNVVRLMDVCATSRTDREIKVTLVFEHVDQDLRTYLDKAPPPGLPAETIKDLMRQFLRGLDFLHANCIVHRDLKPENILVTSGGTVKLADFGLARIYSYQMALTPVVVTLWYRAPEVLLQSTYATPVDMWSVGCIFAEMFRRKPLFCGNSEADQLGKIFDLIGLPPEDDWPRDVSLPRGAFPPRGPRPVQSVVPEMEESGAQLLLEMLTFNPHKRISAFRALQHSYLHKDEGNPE", "T1 sequence (P24385 whole entry, further chain)": "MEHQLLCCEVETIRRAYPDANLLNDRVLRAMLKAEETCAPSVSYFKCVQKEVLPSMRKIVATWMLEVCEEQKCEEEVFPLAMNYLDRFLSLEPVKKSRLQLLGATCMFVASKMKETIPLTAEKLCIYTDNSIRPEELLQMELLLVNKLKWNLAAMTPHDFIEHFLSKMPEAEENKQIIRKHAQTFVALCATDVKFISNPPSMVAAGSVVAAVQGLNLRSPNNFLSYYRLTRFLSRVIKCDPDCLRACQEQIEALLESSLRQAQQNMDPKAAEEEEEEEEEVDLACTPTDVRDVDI", "assay": "Inhibition of Cyclin-dependent kinase 4-cyclin D1", "assay_type": "protein-complex assay"}, "DU-145": {"tested_on": "DU-145", "assay": "Inhibitory concentration against human prostate cell line DU145 was determined", "assay_type": "functional, cell-based"}, "[3]": {"assay": "Inhibitory concentration against NCI H460 cell line was determined", "assay_type": "functional, cell-based, Homo sapiens"}, "HCT-116 [4]": {"tested_on": "HCT-116", "assay": "Inhibitory concentration against human colon cell line HCT116 was determined", "assay_type": "functional, cell-based"}, "T47D": {"tested_on": "T47D", "assay": "Inhibitory concentration against human breast cell line T47D was determined", "assay_type": "functional, cell-based"}, "[5]": {"biological_target": "Cyclin-dependent kinase 1/cyclin B (Homo sapiens, UniProt P06493)", "assay": "Inhibition of Cyclin-dependent kinase 1-cyclin B", "assay_type": "protein-complex assay"}, "A498": {"tested_on": "A498", "assay": "Inhibitory concentration against human kidney cell line A498 was determined", "assay_type": "functional, cell-based"}, "[6]": {"assay": "Partition coefficient (logP)", "assay_type": "physicochemical", "settings": "octanol/water"}, "[7]": {"assay": "Inhibitory concentration against human breast cell line MDA MB468 was determined", "assay_type": "functional, cell-based", "settings": "mda-mb-468"}, "[8]": {"biological_target": "Cyclin-dependent kinase 2/cyclin E (Homo sapiens, UniProt P24941)"}, "[9]": {"biological_target": "Tyrosine-protein kinase ABL1 (Homo sapiens, UniProt P00519)", "sequence (P00519 whole entry)": "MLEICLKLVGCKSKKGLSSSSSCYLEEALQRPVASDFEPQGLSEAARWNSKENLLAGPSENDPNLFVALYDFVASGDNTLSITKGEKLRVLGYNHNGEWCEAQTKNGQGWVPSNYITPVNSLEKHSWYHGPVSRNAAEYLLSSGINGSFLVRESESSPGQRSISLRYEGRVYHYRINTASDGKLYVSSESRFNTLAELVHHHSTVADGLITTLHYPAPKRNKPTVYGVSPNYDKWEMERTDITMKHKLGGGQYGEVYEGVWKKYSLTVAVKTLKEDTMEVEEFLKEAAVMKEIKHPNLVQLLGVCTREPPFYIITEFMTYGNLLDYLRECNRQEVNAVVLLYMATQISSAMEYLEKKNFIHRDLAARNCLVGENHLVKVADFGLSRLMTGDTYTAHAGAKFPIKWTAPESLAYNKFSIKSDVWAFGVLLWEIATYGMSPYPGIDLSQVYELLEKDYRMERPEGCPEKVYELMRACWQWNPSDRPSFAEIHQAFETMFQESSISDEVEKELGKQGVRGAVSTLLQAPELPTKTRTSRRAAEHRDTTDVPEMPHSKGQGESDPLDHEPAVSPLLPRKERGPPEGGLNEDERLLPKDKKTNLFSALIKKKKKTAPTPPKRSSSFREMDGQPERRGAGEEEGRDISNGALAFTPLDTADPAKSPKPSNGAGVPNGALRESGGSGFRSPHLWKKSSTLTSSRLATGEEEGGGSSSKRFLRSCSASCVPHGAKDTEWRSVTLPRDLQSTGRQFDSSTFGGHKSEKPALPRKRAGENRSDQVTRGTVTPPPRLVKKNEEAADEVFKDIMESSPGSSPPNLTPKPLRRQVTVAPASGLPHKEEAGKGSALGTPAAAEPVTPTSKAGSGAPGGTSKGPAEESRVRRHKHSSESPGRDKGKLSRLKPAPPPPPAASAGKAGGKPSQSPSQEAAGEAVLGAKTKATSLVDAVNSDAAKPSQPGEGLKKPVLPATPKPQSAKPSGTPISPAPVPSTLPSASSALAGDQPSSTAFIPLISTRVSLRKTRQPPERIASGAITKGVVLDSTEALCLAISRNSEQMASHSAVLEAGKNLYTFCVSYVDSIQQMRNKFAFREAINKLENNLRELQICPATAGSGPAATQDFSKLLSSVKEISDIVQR"}, "HCT-116 [10]": {"tested_on": "HCT-116", "assay": "Concentration required for growth inhibition of human colon carcinoma cell line HCT116", "assay_type": "functional, cell-based"}, "AG1523": {"tested_on": "AG1523", "assay": "Concentration required for growth inhibition of human fibroblast cell line Ag 1523", "assay_type": "functional, cell-based"}, "[11]": {"biological_target": "T1, Cyclin-dependent kinase 4/cyclin D1", "assay": "Inhibition of Cyclin-dependent kinase 4/cyclin D1", "assay_type": "protein-complex assay"}, "[12]": {"assay": "Inhibition of Protein Kinase A activity"}}, "data": [{"smiles": "CN(C)c1ccc(C(=C2C=CC(=[N+](C)C)C=C2)c2ccc(N(C)C)cc2)cc1.CN(C)c1ccc(C(=C2C=CC(=[N+](C)C)C=C2)c2ccc(N(C)C)cc2)cc1.CN=C1C=CC(=C(c2ccc(N(C)C)cc2)c2ccc(N(C)C)cc2)C=C1", "values": [{"measurement": "IC50", "setting": "HCT-116 [1]", "value": 30, "unit": "nM"}, {"measurement": "IC50", "setting": "MCF7", "value": 14, "unit": "nM"}, {"measurement": "IC50", "setting": "COLO 205", "value": 13, "unit": "nM"}, {"measurement": "IC50", "setting": "[2]", "value": 590, "unit": "nM"}, {"measurement": "IC50", "setting": "DU-145", "value": 15, "unit": "nM"}, {"measurement": "IC50", "setting": "[3]", "value": 16, "unit": "nM"}, {"measurement": "IC50", "setting": "HCT-116 [4]", "value": 34, "unit": "nM"}, {"measurement": "IC50", "setting": "T47D", "value": 16, "unit": "nM"}, {"measurement": "IC50", "setting": "[5]", "value": 100, "unit": "nM"}, {"measurement": "IC50", "setting": "A498", "value": 57, "unit": "nM"}, {"measurement": "logP", "setting": "[6]", "value": 4.2}, {"measurement": "IC50", "setting": "[7]", "value": 12, "unit": "nM"}, {"measurement": "IC50", "setting": "[8]", "value": 10, "unit": "nM"}]}, {"smiles": "CCc1nn(-c2c(Cl)cc(Cl)cc2Cl)c2nc(Cc3cccc(O)c3)[nH]c(=O)c12", "values": [{"measurement": "IC50", "setting": "HCT-116 [1]", "value": 400, "unit": "nM"}, {"measurement": "IC50", "setting": "[2]", "value": 60, "unit": "nM"}, {"measurement": "IC50", "setting": "[5]", "value": 190, "unit": "nM"}, {"measurement": "IC50", "setting": "[8]", "value": 10, "unit": "nM"}]}, {"smiles": "CCc1nn(-c2c(Cl)cc(Cl)cc2Cl)c2nc(Cc3ccc(O)c(C)c3)[nH]c(=O)c12", "values": [{"measurement": "IC50", "setting": "HCT-116 [1]", "value": 500, "unit": "nM"}, {"measurement": "IC50", "setting": "[2]", "value": "> 2200", "unit": "nM"}, {"measurement": "IC50", "setting": "[5]", "value": "> 270", "unit": "nM"}, {"measurement": "IC50", "setting": "[8]", "value": 20, "unit": "nM"}]}, {"smiles": "CCc1nn(-c2c(Cl)cc(Cl)cc2Cl)c2nc(Cc3ccc(C)c(O)c3)[nH]c(=O)c12", "values": [{"measurement": "IC50", "setting": "HCT-116 [1]", "value": 670, "unit": "nM"}, {"measurement": "IC50", "setting": "[2]", "value": 80, "unit": "nM"}, {"measurement": "IC50", "setting": "[5]", "value": 520, "unit": "nM"}, {"measurement": "IC50", "setting": "[8]", "value": 20, "unit": "nM"}]}, {"smiles": "CCc1nn(-c2c(Cl)cc(Cl)cc2Cl)c2nc(Cc3ccc(OC)c(O)c3)[nH]c(=O)c12", "values": [{"measurement": "IC50", "setting": "HCT-116 [1]", "value": 130, "unit": "nM"}, {"measurement": "IC50", "setting": "[2]", "value": 20, "unit": "nM"}, {"measurement": "IC50", "setting": "[5]", "value": 200, "unit": "nM"}, {"measurement": "IC50", "setting": "[8]", "value": 10, "unit": "nM"}]}, {"smiles": "CCc1nn(-c2c(Cl)cc(Cl)cc2Cl)c2nc(Cc3ccc(NC(C)=O)cc3)[nH]c(=O)c12", "values": [{"measurement": "IC50", "setting": "HCT-116 [1]", "value": 20, "unit": "nM"}, {"measurement": "IC50", "setting": "[2]", "value": 1300, "unit": "nM"}, {"measurement": "IC50", "setting": "[5]", "value": 30, "unit": "nM"}, {"measurement": "logP", "setting": "[6]", "value": 3.9}, {"measurement": "IC50", "setting": "[8]", "value": 9, "unit": "nM"}]}, {"smiles": "CCc1nn(-c2c(Cl)cc(Cl)cc2Cl)c2nc(Cc3ccc(OC)c(OC)c3)[nH]c(=O)c12", "values": [{"measurement": "IC50", "setting": "HCT-116 [1]", "value": 610, "unit": "nM"}, {"measurement": "IC50", "setting": "[2]", "value": 4500, "unit": "nM"}, {"measurement": "IC50", "setting": "[5]", "value": "> 510", "unit": "nM"}, {"measurement": "IC50", "setting": "[8]", "value": 110, "unit": "nM"}]}, {"smiles": "CCc1nn(-c2c(Cl)cc(Cl)cc2Cl)c2nc(Cc3ccc(O)c(OC)c3)[nH]c(=O)c12", "values": [{"measurement": "IC50", "setting": "HCT-116 [1]", "value": 320, "unit": "nM"}, {"measurement": "IC50", "setting": "[2]", "value": 6600, "unit": "nM"}, {"measurement": "IC50", "setting": "[5]", "value": 860, "unit": "nM"}, {"measurement": "IC50", "setting": "[8]", "value": 70, "unit": "nM"}]}, {"smiles": "CCc1nn(-c2c(Cl)cc(Cl)cc2Cl)c2nc(Cc3ccc(N)cc3)[nH]c(=O)c12", "values": [{"measurement": "IC50", "setting": "HCT-116 [1]", "value": 420, "unit": "nM"}, {"measurement": "IC50", "setting": "[2]", "value": 2700, "unit": "nM"}, {"measurement": "IC50", "setting": "[5]", "value": 150, "unit": "nM"}, {"measurement": "logP", "setting": "[6]", "value": 3.8}, {"measurement": "IC50", "setting": "[8]", "value": 10, "unit": "nM"}]}, {"smiles": "CSc1nn(-c2c(Cl)cc(Cl)cc2Cl)c2nc(C)[nH]c(=O)c12", "values": [{"measurement": "IC50", "setting": "[9]", "value": 420000, "unit": "nM"}, {"measurement": "IC50", "setting": "HCT-116 [10]", "value": 2500, "unit": "nM"}, {"measurement": "IC50", "setting": "AG1523", "value": 9200, "unit": "nM"}, {"measurement": "IC50", "setting": "[11]", "value": 2100, "unit": "nM"}, {"measurement": "IC50", "setting": "[2]", "value": 2100, "unit": "nM"}, {"measurement": "IC50", "setting": "[5]", "value": 6200, "unit": "nM"}, {"measurement": "IC50", "setting": "[12]", "value": "> 500000", "unit": "nM"}, {"measurement": "IC50", "setting": "[8]", "value": 360, "unit": "nM"}]}, {"smiles": "CCc1nn(-c2c(Cl)cc(Cl)cc2Cl)c2nc(Cc3ccc(NC(=O)CNC(=O)OC(C)(C)C)cc3)[nH]c(=O)c12", "values": [{"measurement": "IC50", "setting": "HCT-116 [1]", "value": 160, "unit": "nM"}, {"measurement": "IC50", "setting": "[2]", "value": 1700, "unit": "nM"}, {"measurement": "IC50", "setting": "[5]", "value": 180, "unit": "nM"}, {"measurement": "logP", "setting": "[6]", "value": 4.9}, {"measurement": "IC50", "setting": "[8]", "value": 10, "unit": "nM"}]}, {"smiles": "CCc1nn(-c2c(Cl)cc(Cl)cc2Cl)c2nc(Cc3ccc(NC(=O)CN)cc3)nc(O)c12", "values": [{"measurement": "IC50", "setting": "HCT-116 [1]", "value": 120, "unit": "nM"}, {"measurement": "IC50", "setting": "[2]", "value": 460, "unit": "nM"}, {"measurement": "IC50", "setting": "[5]", "value": 70, "unit": "nM"}, {"measurement": "logP", "setting": "[6]", "value": 3.3}, {"measurement": "IC50", "setting": "[8]", "value": 10, "unit": "nM"}]}, {"smiles": "CN1CCC(c2c(O)cc(O)c3c(=O)cc(-c4ccccc4Cl)oc23)[C@@H](O)C1", "note": "(mixture of isomers)", "values": [{"measurement": "IC50", "setting": "HCT-116 [10]", "value": 490, "unit": "nM"}, {"measurement": "IC50", "setting": "AG1523", "value": 6700, "unit": "nM"}, {"measurement": "IC50", "setting": "[12]", "value": "> 500000", "unit": "nM"}]}, {"smiles": "CN[C@@H]1C[C@H]2O[C@@](C)([C@@H]1OC)n1c3ccccc3c3c4c(c5c6ccccc6n2c5c31)C(=O)NC4", "note": "[STAUROSPORINE]", "values": [{"measurement": "IC50", "setting": "HCT-116 [10]", "value": 6, "unit": "nM"}]}]}
